The values that follow come from patent publication US12390483B2, “Compounds and methods for treating neurological and cardiovascular conditions” (Astrocyte Pharmaceuticals, Inc., priority 2016, dated 2025).

Entries after “also recorded” stand apart in the source; their conditions may differ.

A short description of series [1]: Pharmacokinetics of MRS4322 following intraperitoneal administration of MRS2365 to mice. In kind it is in vivo. The conditions noted are these: for Plasma Concentration by Subject / Plasma Concentration Mean / Brain Concentration by Subject / Brain Concentration Mean: MRS4322 in mice after MRS2365 0.24 mg/kg i.p.; for Plasma Concentration by Subject / Brain Concentration by Subject: subjects A-C; for Plasma Concentration by Subject / Plasma Concentration Mean: BLQ = below 2.26 ng/mL; for Brain Concentration by Subject / Brain Concentration Mean: BLQ = below 9.40 ng/g. On the procedure:
Animals: Female C576BL/6J mice weighing approximately 0.02 Kg were used for this study, supplied by the University of Texas Health Sciences Center (San Antonio, TX). All studies were conducted under approved University of Texas Health Sciences Center IACUC protocols.
Drug Administration: MRS2365 was solubilized in phosphate-buffered saline and then diluted in phosphate-buffered saline to prepare dosing solution. Final dosing solution concentration of MRS2365 was 100 μM. A 100 μL volume of dosing solution was administered intraperitoneally to each mouse per 20 gram body weight; MRS2365 was administered intraperitoneally at 0.5 μmol/kg or 0.24 mg/kg. Three mice were administered MRS2365 for each sampling timepoint.
Tissue Sampling: Blood and brain samples were obtained at 0, 0.083, 0.25, 0.5, 1, 2 and 8 hours post-dose. At each timepoint, mice (3/timepoint) were euthanized in a […] chamber. Whole blood was obtained by cardiac puncture into Microtainer tubes containing heparin and immediately centrifuged for preparation of plasma; plasma was stored at −80° C. At each timepoint, whole brain samples were obtained by decapitation, rinsed in ice-cold phosphate-buffered saline and weighed. Brain samples were then immediately flash-frozen in liquid nitrogen and stored at −80° C.
The following table outlines the LC and MS/MS conditions employed:
The calibration range for the MRS4322 plasma concentration standard curve was 2.26-241 ng/mL. The calibration range for MRS4322 brain concentrations was 2.35-242 ng/mL.
For bioanalysis of brain concentrations of MRS4322, brain samples were homogenized in ice-cold phosphate-buffered saline in a 4× dilution. Aliquots of the resulting diluted brain homogenate were treated with acetonitrile and analyzed by LC-MS/MS. Because of the 4× homogenate dilution, the calibration range of the MRS4322 brain standard curve was translated to 9.40-968 ng/gm. In several samples, MRS4322 were detectable but fell below the brain LLOQ of 9.40 ng/gm but were above background; in these cases the final reported brain concentration was extrapolated based on MS peak heights.

The test system of series [2] is photothrombosis-induced stroke infarctions. Nature of the series: Photothrombosis-induced stroke in mice, TTC-stained brain infarction size. The class given is in vivo. The conditions noted are these: for size of the brain infarction (TTC staining): 24 hours after stroke, versus vehicle; for size of brain infarctions in mice pretreated with the A3 receptor antagonist MRS1523: MRS1523 2 mg/kg i.p. at 0 and 2 hours, treatment within 30 minutes of clot formation, 24 hours. On the procedure:
Photothrombosis-induced Stroke: Photothrombosis was performed as described in Zheng et al 2010 (PloS One 5 (12): e14401). In brief, Rose Bengal is a fluorescent dye that when injected into the vasculature and excited, generates singlet oxygen that damages the endothelial wall and induces a local thrombosis (clot). Using this technique, mice were given a 0.1 mL tail-vein injection of sterilized Rose Bengal (RB, Sigma, U.S.A.) in artificial cerebral spinal fluid (aCSF). The RB concentration was 20 mg/mL. A cortical region was centered in the imaging field and illuminated with a green laser (543 nm, 5 mW) using a 0.8-NA 40× water-immersion objective (Nikon, Tokyo). The clot formation was monitored in real time until the targeted vessel or downstream capillaries were firmly occluded. Stable clots were subsequently identified by a non-fluorescent vessel segmentation ending with highly fluorescent regions. […] Treatments, MRS4322 (0.16 mg/kg; 0.5 μmol/kg) or MRS2365 (0.24 mg/kg; 0.5 μmol/kg) were introduced via intraperitoneal injections (i.p.). […] Animals and Photothrombosis-induced Stroke: Stroke was performed as described in Zheng et al 2010 (PloS One 5 (12): e14401). Female C57Bl/6 mice (4-6 months) were used in this study. From the methods of this manuscript: Mice were anesthetized at 3% isoflurane with 100% oxygen and subsequently maintained at 1% isoflurane through a nosecone. Depth of anesthesia was monitored and regulated according to vital signs, pinch withdrawal and eye blinks. Body temperature was maintained at 37° C. by a feedback-controlled heating pad (Gaymar T/Pump). Vital signs including oxygen saturation, respiratory rate, and heart rate were continuously monitored by using the MouseOx system (STARR Life Sciences). The hair on each mouse's head was trimmed and a small incision was made in the scalp to expose the skull. A custom-made stainless steel plate was glued to the skull with VetBond Tissue Adhesive (3M, St Paul, MN). A cranial thinned-skull imaging window was created over the right primary somatosensory cortex (˜1.5 mm posterior to Bregma and 2 mm lateral from midline) depending on the experiment. In brief, a large region of the skull was first thinned with the electric drill and then further thinned with a surgical blade. The final thickness of the thinned skull was approximately 50 μm. After the cranial imaging window was created, mice were transferred to microscope stage and used for photothrombosis or imaging experiments. For the repeat imaging experiments, the plate was carefully detached from the skull and the scalp was sutured (Ethicon 6-0 sild suture). After each experiment, the mice were either returned to cages until the next timepoint or sacrificed. All procedures were approved by the Institutional Animal Care and Use Committee (IACUC) at University of Texas Health Science Center at San Antonio. Thirty minutes following stroke or sham (uninjured), mice were treated with either vehicle (saline) or drugs (MRS4322, MRS2365, MRS5698 or Cl-IBMECA). Post photothrombotic infarction evaluation. The size of cerebral infarcts was evaluated using 2,3,5-Triphenyltetrazolium chloride (TTC) staining as described in Zheng et al 2010 (PloS One 5 (12): e14401). In brief, RB-induced lesions in brain slices were stained with TTC. TTC is a colorless dye that stains healthy brain tissue red when reduced by the mitochondrial enzyme succinyl dehydrogenase (Bederson J B et al., 1986). The absence of staining in necrotic tissue is then used to define the area of a brain infarction. Mice were sacrificed by cervical dislocation, their brains removed and then placed in ice cold HBSS for 3 minutes. […] The sections were fixed in 10% buffered formaldehyde solution overnight at 4° C. Slices were imaged on a flatbed scanner (HP scanjet 8300) for analysis of the lesion size at 1200 dpi. Photothrombosis-induced Stroke: Photothrombosis was performed as described in Zheng et al. 2010 (PloS One 5 (12): e14401). […]

The mark [3] stands for this setting: Example 6: mice, 0.5 μmol/kg i.p. within 30 minutes of clot formation.

Regarding `CSc1nc(N)c2ncn([C@H]3[C@H](O)[C@H](O)[C@]4(COP(=O)(O)OP(=O)(O)O)C[C@H]34)c2n1` [MRS2365], in series [1] (MRS2365 0.5 μmol/kg i.p., mice), the “metabolic fate following intraperitoneal administration to mice” value is “rapidly and completely metabolized to MRS4322”. Also, the “size of the brain infarction (TTC staining)” value in series [2] (setting [3]) is “significantly reduced”. For the same molecule, the “size of brain infarctions in mice pretreated with the A3 receptor antagonist MRS1523” value in series [2] is reported as “not reduced”.
Take `CSc1nc(N)c2ncn([C@H]3[C@H](O)[C@H](O)[C@]4(CO)C[C@H]34)c2n1` [MRS4322]: the “Plasma Concentration by Subject” value in series [1] (0 h) and in series [1] (8 h) was “BLQ” each time. The “Plasma Concentration Mean” value in series [1] (0 h) and in series [1] (8 h) was “BLQ” in each case. Moreover, the “Brain Concentration by Subject” value in series [1] (0.083 h), in series [1] (1 h), in series [1] (2 h) and in series [1] (8 h) was “BLQ” in each case. In addition, the “Brain Concentration Mean” value in series [1] (0.083 h), in series [1] (1 h), in series [1] (2 h) and in series [1] (8 h) was “BLQ” in each case. For the same molecule, the “size of the brain infarction (TTC staining)” value in series [2] (setting [3]) is given as “significantly reduced”; in series [2] (Example 7: mice, 100 ul of 100 uM i.p. within 30 minutes of clot formation) it was “significantly reduced”. In series [2], the “size of brain infarctions in mice pretreated with the A3 receptor antagonist MRS1523” value is reported as “reversed by MRS1523; also recorded: not reduced”. Further, in series [2] (summary statement), the “efficacy in the mouse photothrombotic stroke model” value is “significant efficacy”.
